Values joined by “and” are separate entries in the source; they are usually repeats but may differ in a detail not shown here. Equal values may be shown once.
Assays:
SARS-CoV-2 Mpro (3CLpro) = SARS-CoV-2 Mpro (3CLpro) (Severe acute respiratory syndrome coronavirus 2, UniProt P0DTD1); experiment: SARS-CoV-2 recombinant protease enzymatic assay (FRET); assay type: biochemical; settings: for IC50: recombinant Mpro, FRET peptide substrate
[1] = system: SARS-CoV-2-Nluc reporter virus; experiment: microbe, parasite or virus in culture; assay type: cell-based; settings: for EC50: Severe acute respiratory syndrome coronavirus 2, VeroE6/TMPRSS2 cells, parentheses denote 95% confidence intervals
in vitro = settings: chlorocebus sabaeus
[2] = Rat liver microsome stability assay; settings: 37 °C; for remaining at 5 min, 3 µM / remaining at 10 min, 3 µM / remaining at 0.25 h, 3 µM / half-life at 3 µM: Sprague-Dawley, rat, microsomes; for remaining at 5 min, 3 µM / remaining at 10 min, 3 µM / remaining at 0.25 h, 3 µM: RLM Rel % remaining; for half-life at 3 µM: RLM t1/2, 3 μM, unit inferred
Description: Metabolic Stability Assay
(§1) Liver Microsome Stability Assay Protocol
(§2) Human liver microsomes (HLMs, 20 mg/mL), CD-1 mouse liver microsomes (MLMs, 20 mg/mL), Sprague Dawley
(§3) rat liver microsomes (RLMs, 20 mg/mL) were purchased from Xenotech. NADPH was purchased from Sigma-
(§4) Aldrich and prepared in 10 mM stock solutions of distilled H2O (InvitrogenTM UltraPureTM). Verapamil and
(§5) diphenhydramine were both purchased from Sigma-Aldrich and served as positive controls for LM stability assays.
(§6) Test compounds and positive controls were initially dissolved in DMSO to make 10 mM stock solutions. Sample
(§7) solutions were then further diluted in 100% MeCN to 500 μM. Next, the reactions were prepared by mixing human
(§8) or mouse liver microsomes (55 μL) with potassium phosphate buffer (100 mM, 928 μL) in 1.5 mL Eppendorf tubes.
(§9) The test compounds (6.6 μL of 500 μM solution) were subsequently added to the suspensions, and the reaction
(§10) mixtures were incubated at 37 °C for 5 min. Afterward, the liver microsome reactions were initiated with 110 μL
(§11) of 10 mM NADPH and further incubated at 37 °C for the designated time course of the study. This procedure
(§12) provided experiments with a final volume of 1100 μL (0.6% organic solvent content) and a final test compound
(§13) concentration of 3 μM. Aliquots (100 μL) were removed from each reaction mixture in duplicate at 0, 5, 10, 15,
(§14) and 30 min time intervals and quenched with 100 μL of cold internal standard solution (ISTD, 2 μM
(§15) 7-ethoxy-d 5-coumarin in MeOH or MeCN). Quenched aliquots were then centrifuged at 12,500 g for 5-10 min, and
(§16) the resulting supernatants were withdrawn and placed in LC-MS vials to be analyzed by LC-MS/MS (Agilent
(§17) G6460C QQQ MS coupled with an Infinity II 1260 HPLC). Each test compound was run in tandem with positive and
(§18) negative control experiments for quality assurance. Positive control reactions were conducted at a final volume
(§19) of 550 μL for a single run of each time point. Lastly, the negative control experiment was conducted with test
(§20) compounds and liver microsomes in the absence of NADPH (150 μL) and analyzed at the 30 min time point.
(§21) Data Analysis. Each data point was analyzed in triplicate using in-between blank washes to avoid carry over and
(§22) to equilibrate the column for the subsequent runs. Averages of these triplicates for individual compounds at each
(§23) time point were then normalized to the data at 0 min, representing 100% test compound remaining or 0%
(§24) metabolism. Half-lives (t 1/2) were calculated by plotting ln of % test compound remaining versus time and
(§25) performing linear regression to determine slope.
(§26) Instrumentation and LC-MS/MS Method Development
(§27) LC-MS/MS analyses were conducted on an Agilent 1260 Infinity II HPLC equipped with an Agilent G6460 triple
(§28) quadrupole mass spectrometer (Agilent Technologies, USA). Reverse-phase HPLC separation for each compound
(§29) m) column maintained at 40 °C. The mobile phase used during analyses consisted of either MeOH-H2O (0.1% FA)
(§30) or MeCN-H2O (0.1% FA) at a flow rate of 0.5 mL/min. Each method was developed in the presence of the internal
(§31) standard (ISTD), 7-ethoxy-d 5-coumarin. Precursor and product ion detection was performed with Agilent Jet
(§32) Stream electrospray positive ionization (ESI+) in multiple reaction monitoring (MRM) mode. All MRM transitions,
(§33) MS conditions were as follows: dwell time of 100 ms; gas flow of 10 L/min; nebulizer pressure of 45 psi; delta EMV
(§34) of 200 V. Lastly, all acquired data was processed using Agilent 6460 Quantitative Analysis software.

[3] = Human liver microsome stability assay; settings: for HLM percentage remaining after 30 min: 3 μM, 37 °C; for half-life at 3 µM / remaining at 5 min, 3 µM / remaining at 10 min, 3 µM / remaining at 0.25 h, 3 µM: human, microsomes
Description: Metabolic Stability Assay
as §1, §2, §3, §4, §5, §6, §7, §8, §9, §10, §11, §12, §13, §14, §15, §16, §17, §18, §19, §20, §21, §22, §23, §24, §25, §26, §27, §28, §29, §30, §31, §32, §33, §34

[4] = Mouse liver microsome stability assay; settings: for MLM percentage remaining after 30 min: 3 μM, 37 °C; for half-life at 3 µM / remaining at 5 min, 3 µM / remaining at 10 min, 3 µM / remaining at 0.25 h, 3 µM: CD-1, mouse, microsomes
Description: Metabolic Stability Assay
as §1, §2, §3, §4, §5, §6, §7, §8, §9, §10, §11, §12, §13, §14, §15, §16, §17, §18, §19, §20, §21, §22, §23, §24, §25, §26, §27, §28, §29, §30, §31, §32, §33, §34

[5] = Liver microsome metabolite identification (LC-HRMS); assay type: in vitro ADME; settings: liver microsomes, LC-HRMS
Description: Figure S15: Stability of 45 in rat liver microsomes (RLM) at 37 °C
Table S17: Stability of 43 in rat liver microsomes (RLM) at 37 °C
Time Response ratio Average RR Rel % ln
Metabolite identification
Procedure for Liver Microsome Metabolite Identification Assay: Test compounds and positive controls were dissolved in 100% DMSO to make 10 mM stock solutions. The 10 mM stock solutions of test and control […]
(1 picture or pasted object on this page, not shown here) […]
compounds were further diluted in potassium phosphate buffer (100 mM, pH 7.4) to 500 μM to ensure that the organic solvent content was < 0.2%. The liver microsome (HLM or MLM) assay was prepared in a 1.5 mL Eppendorf tube with a final volume of […] for duplicate runs. Each reaction contained phosphate buffer (374 μL), liver microsomes (550 μL), and test compound (66 μL of 500 resulting in a final concentration of 30 μM), μM for the […]
test compound. […] Aliquots (100 μL) were removed in […]
MS analysis was performed using full scan from a mass range of 100-700 m/z at 60k resolution with data dependent MS/MS and MSn programs enabled for the top 5 ions detected for each scan. Compounds are detected based on their MS1 precursor ion accurate mass m/z and identified with matching theoretical and observed accurate mass MS1 ions with interpretation of accurate mass MS/MS spectra from expected […]

SARS-CoV-2 Mpro = settings: literature value; cited from earlier work

| SMILES | IC50 (SARS-CoV-2 Mpro (3CLpro)) [nM] | EC50 [1] [nM] | CC50 (in vitro) [nM] | RLM percentage remaining after 30 min ([2]; 3 μM) | half-life at 3 µM [2] [min] | HLM percentage remaining after 30 min [3] | half-life at 3 µM [3] [min] | remaining at 5 min, 3 µM [3] [%] | remaining at 10 min, 3 µM [3] [%] | remaining at 0.25 h, 3 µM [3] [%] | MLM percentage remaining after 30 min [4] | half-life at 3 µM [4] [min] | remaining at 5 min, 3 µM [4] [%] | remaining at 10 min, 3 µM [4] [%] | remaining at 0.25 h, 3 µM [4] [%] | other results |
| --- | --- | --- | --- | --- | --- | --- | --- | --- | --- | --- | --- | --- | --- | --- | --- | --- |
| Cc1nc(C)c(COc2cc(Cl)cc(-n3cc(-c4ccc[nH]c4=O)c(=O)n(-c4cccnc4)c3=O)c2)s1 [Compound 40] | 16 | 10200 | > 100000 |  |  |  |  |  |  |  |  |  |  |  |  |  |
| O=c1[nH]cccc1-c1cn(-c2cc(Cl)cc(OCc3nccn3C(F)F)c2)c(=O)n(-c2cccnc2)c1=O [Compound 41] | 13 | 6760 | > 100000 | 90.2% and 90.17% | > 30 | 70.7% | > 30 | 94.5 | 84.4 | 66.4 | 22.8% and 22.79% | 14.7 | 63.8 | 50.2 | 37.7 | remaining at 5 min, 3 µM ([2]; 5 min): 97.6%; remaining at 10 min, 3 µM ([2]; 10 min): 95.2%; remaining at 0.25 h, 3 µM ([2]; 15 min): 93.9% |
| Cn1c([N+](=O)[O-])cnc1COc1cc(Cl)cc(-n2cc(-c3ccc[nH]c3=O)c(=O)n(-c3cccnc3)c2=O)c1 [Compound 42] | 12 | 19300 | > 100000 |  |  |  |  |  |  |  |  |  |  |  |  |  |
| O=c1[nH]cccc1-c1cn(-c2cc(Cl)cc(OCc3ccccc3Cl)c2)c(=O)n(-c2cccnc2)c1=O [Compound 43] | 8.6 | 130 | > 100000 | 26.6% and 26.55% and 30.88% | 16.1 | 48% and 47.72% | 27.8 | 91.6 | 76.9 | 70.7 | 4.0% and 3.96% | 3 | 22.8 | 10.4 | 7.53 | IC50 range in words (SARS-CoV-2 Mpro (3CLpro)): single-digit nanomolar range; EC50 range in words [1]: sub-micromolar; major microsomal metabolite / metabolic route [5]: ether cleavage; RLM t1/2 ([2]; 3 μM, unit not given): 19.8 min; RLM Rel % remaining ([2]; 5 min): 80.16%; RLM Rel % remaining ([2]; 10 min): 63.43%; RLM Rel % remaining ([2]; 15 min): 57.78%; remaining at 5 min, 3 µM ([2]; 5 min): 71.1%; remaining at 10 min, 3 µM ([2]; 10 min): 55.3%; remaining at 0.25 h, 3 µM ([2]; 15 min): 43.5% |
| Cn1cc(COc2cc(Cl)cc(-n3cc(-c4ccc[nH]c4=O)c(=O)n(-c4cccnc4)c3=O)c2)c(C(F)(F)F)n1 [Compound 44] | 5.6 | 3300 | > 100000 |  |  |  |  |  |  |  |  |  |  |  |  | IC50 range in words (SARS-CoV-2 Mpro (3CLpro)): single-digit nanomolar range |
| O=c1[nH]cccc1-c1cn(-c2cc(Cl)cc(OCc3ncsc3C(F)(F)F)c2)c(=O)n(-c2cccnc2)c1=O [Compound 45] | 12 | 820 | > 100000 | 30.9% | 18 | 19.5% and 19.47% | 13 | 84.6 | 49.9 | 48.5 | 14.4% and 14.41% | 11 | 54.6 | 43 | 20.6 | EC50 range in words [1]: sub-micromolar |
| Cc1scnc1COc1cc(Cl)cc(-n2cc(-c3ccc(=O)[nH]c3)c(=O)n(-c3cccnc3)c2=O)c1 [Compound 51] | 120 | > 20000 | > 100000 |  |  |  |  |  |  |  |  |  |  |  |  |  |
| N#Cc1ccccc1-c1cc(-c2ccccn2)cn(-c2ccccc2)c1=O [Perampanel, perampanel] |  |  |  |  |  |  |  |  |  |  |  |  |  |  |  | IC50 (SARS-CoV-2 Mpro): 100000 to 200000 nM |

— publication PMC10577883, “Design and Optimization of Novel Competitive, Non-peptidic, SARS-CoV-2 M^pro Inhibitors” (ACS Medicinal Chemistry Letters, 2023)
